# In ChEMBL document CHEMBL1133869, “Synthesis and biological activity of L-tyrosine-based PPARgamma agonists with reduced molecular weight” (Bioorg Med Chem Lett, 2001):
# What was measured:
# [1] = target: T1, Peroxisome proliferator-activated receptor gamma (Homo sapiens, UniProt P37231)
# T1 sequence (P37231 whole entry): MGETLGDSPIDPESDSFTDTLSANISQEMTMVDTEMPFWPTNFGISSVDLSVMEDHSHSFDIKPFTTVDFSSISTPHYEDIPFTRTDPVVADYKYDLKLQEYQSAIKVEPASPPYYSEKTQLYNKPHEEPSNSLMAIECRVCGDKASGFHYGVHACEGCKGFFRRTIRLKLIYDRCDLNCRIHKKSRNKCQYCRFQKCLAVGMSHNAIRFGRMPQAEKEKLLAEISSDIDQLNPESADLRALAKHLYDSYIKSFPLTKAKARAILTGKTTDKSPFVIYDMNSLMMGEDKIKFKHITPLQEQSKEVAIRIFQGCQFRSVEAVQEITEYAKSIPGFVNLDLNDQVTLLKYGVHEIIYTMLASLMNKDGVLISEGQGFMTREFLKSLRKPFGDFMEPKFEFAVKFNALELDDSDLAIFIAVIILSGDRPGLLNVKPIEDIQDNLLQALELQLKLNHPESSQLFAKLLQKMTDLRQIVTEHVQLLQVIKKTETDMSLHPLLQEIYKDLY
# Description: Maximal reporter activity against human Peroxisome proliferator activated receptor gamma Gal4 chimeric in transiently transfected CV-1 cells by functional assay.
# [2] = target: T2, Peroxisome proliferator-activated receptor alpha (Homo sapiens, UniProt Q07869); assay: Maximal reporter activity against human Peroxisome proliferator activated receptor alpha Gal4 chimeric in transiently transfected CV-1 cells by functional assay.; format: cell-based
# T2 sequence (Q07869 whole entry): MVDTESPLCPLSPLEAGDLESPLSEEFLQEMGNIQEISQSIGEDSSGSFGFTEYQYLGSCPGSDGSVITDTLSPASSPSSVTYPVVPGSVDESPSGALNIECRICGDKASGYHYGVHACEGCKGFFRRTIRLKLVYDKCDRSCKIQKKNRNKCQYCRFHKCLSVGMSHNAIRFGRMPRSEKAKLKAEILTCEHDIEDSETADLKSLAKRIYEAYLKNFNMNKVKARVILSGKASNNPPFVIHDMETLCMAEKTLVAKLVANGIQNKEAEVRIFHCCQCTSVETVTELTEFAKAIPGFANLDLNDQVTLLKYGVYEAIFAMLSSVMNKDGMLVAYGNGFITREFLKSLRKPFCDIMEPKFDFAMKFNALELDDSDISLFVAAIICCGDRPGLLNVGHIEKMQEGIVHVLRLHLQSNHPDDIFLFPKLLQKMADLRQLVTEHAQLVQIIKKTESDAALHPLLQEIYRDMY
# [3] = target: T1, Peroxisome proliferator-activated receptor gamma; remark: listed apart in the source
# Description: Binding affinity to human Peroxisome proliferator activated receptor gamma using scintillation proximity assay
# [4] = target: T3, Peroxisome proliferator-activated receptor delta (Homo sapiens, UniProt Q03181); assay: Concentration that gave 50% of maximal reporter activity against human Peroxisome proliferator activated receptor delta Gal4 chimeric in transiently transfected CV-1 cells by functional assay.; format: cell-based
# T3 sequence (Q03181 whole entry): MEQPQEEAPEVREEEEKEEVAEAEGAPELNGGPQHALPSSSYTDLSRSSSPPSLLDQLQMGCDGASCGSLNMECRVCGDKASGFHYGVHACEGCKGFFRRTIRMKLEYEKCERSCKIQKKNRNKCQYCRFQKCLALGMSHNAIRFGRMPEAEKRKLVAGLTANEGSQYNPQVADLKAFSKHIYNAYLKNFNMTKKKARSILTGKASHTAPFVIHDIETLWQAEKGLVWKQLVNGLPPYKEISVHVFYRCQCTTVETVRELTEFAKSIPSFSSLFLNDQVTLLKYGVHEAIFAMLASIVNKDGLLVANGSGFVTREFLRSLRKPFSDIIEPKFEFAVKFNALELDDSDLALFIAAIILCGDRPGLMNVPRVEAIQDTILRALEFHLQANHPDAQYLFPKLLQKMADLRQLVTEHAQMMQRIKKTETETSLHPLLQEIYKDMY
# [5] = tested on: Rattus norvegicus; assay: In vivo efficacy expressed as reduction in fasting serum triglycerides at a dose of 10 mg/kg, oral, for 14 days in male rats; format: functional
# [6] = tested on: Rattus norvegicus; assay: In vivo efficacy expressed as increase in HDL-cholesterol after at a dose of 10 mg/kg, oral, for 14 days in male rats; format: functional
# [7] = tested on: Rattus norvegicus; assay: In vivo efficacy expressed as reduction in fasting plasma glucose at a dose of 10 mg/kg, oral, for 14 days in male rats; format: functional
# [8] = target: T3, Peroxisome proliferator-activated receptor delta; assay: Binding affinity to bind to human Peroxisome proliferator activated receptor delta using scintillation proximity assay
EC50 [1] [nM],Ki [3] [nM],SMILES,also measured
3500,2600,CC(=O)N[C@@H](Cc1ccc(OCCc2nc(-c3ccccc3)oc2C)cc1)C(=O)O,
410,850,Cc1oc(-c2ccccc2)nc1CCOc1ccc(C[C@@H](C(=O)O)N(C)C)cc1,
2600,620,Cc1oc(-c2ccccc2)nc1CCOc1ccc(C[C@H](NS(C)(=O)=O)C(=O)O)cc1,
5000,2100,CN[C@@H](Cc1ccc(OCCc2nc(-c3ccccc3)oc2C)cc1)C(=O)O,

# Second part, the compound before the results:
SMILES,EC50 [1] [nM],Ki [3] [nM],also measured
Cc1oc(-c2ccccc2)nc1CCOc1ccc(C[C@@H](C(=O)O)N2CCOCC2)cc1,24,158,EC50 [2]: 6900 nM
Cc1oc(-c2ccccc2)nc1CCOc1ccc(C[C@@H](C(=O)O)n2cccc2)cc1,,,EC50 [4]: 3800 nM; Reduction [5]: 24%; Increase [6]: 31%; Reduction [7]: 40%; Ki [8]: 2500 nM
Cc1oc(-c2ccccc2)nc1CCOc1ccc(C[C@H](Nc2ccccc2C(=O)c2ccccc2)C(=O)O)cc1 [FARGLITAZAR],,,Ki [8]: 1200 nM
Cc1oc(-c2ccccc2)nc1CCOc1ccc(C[C@@H](C(=O)O)N2CCCCC2)cc1,138,480,
Cc1oc(-c2ccccc2)nc1CCOc1ccc(C[C@@H](C(=O)O)n2c(C)ccc2C)cc1,710,980,
Cc1oc(-c2ccccc2)nc1CCOc1ccc(C[C@@H](C(=O)O)N2CCCC2)cc1,390,360,
Cc1oc(-c2ccccc2)nc1CCOc1ccc(C[C@H](Nc2ncccn2)C(=O)O)cc1,590,280,
CCCN[C@@H](Cc1ccc(OCCc2nc(-c3ccccc3)oc2C)cc1)C(=O)O,240,52,
